This test concerns U2OS_Bim cells. In words: Apoptosis inhibition assay (Bim-induced apoptosis, cell viability by ATP level). The format is cell-based. To be noted: U2OS_Bim cells, means of duplicates, numbering of Tables 4a/4b. The protocol: A chemical library containing 200000 compounds was screened according to the following procedure: U2OS_Bim cells (a cell line in which the BH3-only protein Bim can be inducibly expressed by the addition of Doxycycline to the growth medium)^[2] were plated in 384-well plates with 30 μl medium at a density of 500 cells per well. 16 hrs after plating, test compounds were transferred from stock plates to the assay plates with the cultured cells. Positive control (20 μM zVAD) and negative control (DMSO) were added to every plate. 1 hr after compound treatment, 0.1 ug/mL Doxycyclin (DOX) was added to induce the expression of the Bim protein. After 24 hrs, cell viability was determined by measuring the ATP levels using a Cell Titer-Glo kit (Promega, G7570) according to the manufacturer's instructions. Luminescence was recorded with a PerkinElmer EnSpire Multimode Plate Reader. Compounds that could rescue cell viability to a level above 50% were selected; these compounds were then screened a second time for assurance.
U2OS_Bim or U2OS_tBid cells were plated at a density of 3000 cells per well in 96-well plates. 24 hrs later, cells were treated with experimental compounds, zVAD (positive control) and DMSO (Negative control) for one hour. The cells were then treated with 0.1 μg/mL DOX to trigger apoptosis. 24 hours after the addition of DOX, cell viability was determined by measuring the ATP levels using a Cell Titer-Glo kit. Cell survival rate was calculated.
U2OS_Bim cells (a U2OS stable cell line transfected with a Bim transgene) were cultured in DMEM culture medium (Gibico). On day one, U2OS_Bim cells were plated in 96-well plates at a density of 3000 cells per well. On day two, cells were pretreated with compounds for one hour. Then cells were treated with 0.1 μg/mL doxycycline (DOX) to trigger apoptosis. 24 hours after DOX treatment, cell viability was determined by measuring the ATP levels using the Cell Titer-Glo kit (G7570, Promega), according to the manufacturer's instructions. Luminescence was recorded with a PerkinElmer EnSpire Multimode Plate Reader. Survived cells were normalized to those cells treated with DMSO. zVAD (20 μM) was used as a positive control. Activity data for compounds […] are represented as means f standard deviation of duplicates; activity data for compounds 187-274 are estimated based on preliminary results.

For 24 compounds, EC50 results are on record in patent US11725000B2, “Apoptosis inhibitors” (National Institute of Biological Sciences, Beijing, priority 2017, dated 2023).

pEC50: −log10 of the molar value. Where two headings read alike, the source gives them in different places.

For `CS(=O)(=O)c1nc(-c2ccc(=O)n(Cc3cccc(Br)c3)c2)cc(C(F)(F)F)n1` [Compound 107, 1-(3-bromobenzyl)-5-(2-(methylsulfonyl)-6-(trifluoromethyl)pyrimidin-4-yl)pyridin-2 (1H)-one], the pEC50 (usually −log10 of the EC50, conventionally taken in molar units) (read-out: EC50) was 6.00 to 9.00.
For `CS(=O)(=O)c1nc(-c2ccc(=O)n(Cc3cccc(O)c3)c2)cc(C(F)(F)F)n1` [Compound 108, 1-(3-hydroxybenzyl)-5-(2-(methylsulfonyl)-6-(trifluoromethyl)pyrimidin-4-yl)pyridin-2 (1H)-one], for the setting “read-out: EC50”, the pEC50 is 5.00 to 6.00.
Turning to `COc1cccc(Cn2cc(-c3cc(C(F)(F)F)nc(S(C)(=O)=O)n3)ccc2=O)c1` [Compound 109, 1-(3-methoxybenzyl)-5-(2-(methylsulfonyl)-6-(trifluoromethyl)pyrimidin-4-yl)pyridin-2 (1H)-one], the pEC50 (read-out: EC50) is 6.00 to 9.00.
Still for that read-out and setting: with `COc1ccc(Cn2cc(-c3cc(C(F)(F)F)nc(S(C)(=O)=O)n3)ccc2=O)cc1` [Compound 110, 1-(4-Methoxybenzyl)-5-(2-(methylsulfonyl)-6-(trifluoromethyl)pyrimidin-4-yl)pyridin-2 (1H)-one] the figure was 6.00 to 9.00; with `COc1ccc(Cn2cc(-c3cc(C(F)(F)F)nc([S+](C)[O-])n3)ccc2=O)cc1` (stereo not drawn) [Compound 111, 1-(4-Methoxybenzyl)-5-(2-(methylsulfinyl)-6-(trifluoromethyl)pyrimidin-4-yl)pyridin-2 (1H)-one], 6.00 to 9.00; with `CCOc1cccc(Cn2cc(-c3cc(C(F)(F)F)nc(S(C)(=O)=O)n3)ccc2=O)c1` [Compound 112, 1-(3-ethoxybenzyl)-5-(2-(methylsulfonyl)-6-(trifluoromethyl)pyrimidin-4-yl)pyridin-2 (1H)-one], 6.00 to 9.00.
With `CCCOc1cccc(Cn2cc(-c3cc(C(F)(F)F)nc(S(C)(=O)=O)n3)ccc2=O)c1` [Compound 113, 5-(2-(methylsulfonyl)-6-(trifluoromethyl)pyrimidin-4-yl)-1-(3-propoxybenzyl)pyridin-2 (1H)-one], the pEC50 (read-out: EC50) was 6.00 to 9.00.
Turning to `CCCOc1cccc(Cn2cc(-c3cc(C(F)(F)F)nc([S+](C)[O-])n3)ccc2=O)c1` (stereo not drawn) [Compound 114, 5-(2-(methylsulfinyl)-6-(trifluoromethyl)pyrimidin-4-yl)-1-(3-propoxybenzyl)pyridin-2 (11H)-one], the pEC50 (read-out: EC50) was 5.00 to 6.00.
The same measure, in the same setting: the value for `C#CCOc1cccc(Cn2cc(-c3cc(C(F)(F)F)nc(S(C)(=O)=O)n3)ccc2=O)c1` [Compound 115, 5-(2-(methylsulfonyl)-6-(trifluoromethyl)pyrimidin-4-yl)-1-(3-(prop-2-yn-1-yloxy)benzyl) pyridin-2 (1H)-one] was 6.00 to 9.00.
As for `C[S+]([O-])c1nc(-c2ccc(=O)n(Cc3ccc(OC(F)(F)F)cc3)c2)cc(C(F)(F)F)n1` (stereo not drawn) [Compound 116, 5-(2-(methylsulfinyl)-6-(trifluoromethyl)pyrimidin-4-yl)-1-(4-(trifluoromethoxy)benzyl)pyridin-2 (1H)-one], where the note is “read-out: EC50”, the pEC50 is 5.00 to 6.00.
The same measure, in the same setting: with `CS(=O)(=O)c1nc(-c2ccc(=O)n(Cc3ccc(OC(F)(F)F)cc3)c2)cc(C(F)(F)F)n1` [Compound 117, 5-(2-(methylsulfonyl)-6-(trifluoromethyl)pyrimidin-4-yl)-1-(4-(trifluoromethoxy)benzyl)pyridin-2 (1H)-one] the figure was 4.70 to 6.00; with `CS(=O)(=O)c1nc(-c2ccc(=O)n(Cc3cccc(C#N)c3)c2)cc(C(F)(F)F)n1` [Compound 118, 3-((5-(2-(methylsulfonyl)-6-(trifluoromethyl)pyrimidin-4-yl)-2-oxopyridin-1 (2H)-yl)methyl)benzonitrile], 4.70 to 6.00.
On to `CS(=O)(=O)c1nc(-c2ccc(=O)n(Cc3ccc(C#N)cc3)c2)cc(C(F)(F)F)n1` [Compound 119, 4-((5-(2-(methylsulfonyl)-6-(trifluoromethyl)pyrimidin-4-yl)-2-oxopyridin-1 (2H)-yl)methyl)benzonitrile], for which the pEC50 (read-out: EC50) is 5.00 to 6.00.
As to `C#Cc1cccc(Cn2cc(-c3cc(C(F)(F)F)nc(S(C)(=O)=O)n3)ccc2=O)c1` [Compound 120, 1-(3-ethynylbenzyl)-5-(2-(methylsulfonyl)-6-(trifluoromethyl)pyrimidin-4-yl) pyridin-2 (1H)-one], the pEC50 (read-out: EC50) is 6.00 to 9.00.
On to `C#Cc1cccc(Cn2cc(-c3cc(C(F)(F)F)nc([S+](C)[O-])n3)ccc2=O)c1` (stereo not drawn) [Compound 121, 1-(3-ethynylbenzyl)-5-(2-(methylsulfinyl)-6-(trifluoromethyl)pyrimidin-4-yl)pyridin-2 (1H)-one], for which the negative logarithm of the EC50 (pEC50) (read-out: EC50) was 6.00 to 9.00.
In the case of `C#Cc1ccc(Cn2cc(-c3cc(C(F)(F)F)nc(S(C)(=O)=O)n3)ccc2=O)cc1` [Compound 122, 1-(4-ethynylbenzyl)-5-(2-(methylsulfonyl)-6-(trifluoromethyl)pyrimidin-4-yl)pyridin-2 (1H)-one], the pEC50 (read-out: EC50) was 6.00 to 9.00.
Turning to `CS(=O)(=O)c1nc(-c2ccc(=O)n(Cc3ccc(N=[N+]=[N-])cc3)c2)cc(C(F)(F)F)n1` [Compound 123, 1-(4-azidobenzyl)-5-(2-(methylsulfonyl)-6-(trifluoromethyl)pyrimidin-4-yl)pyridin-2 (1H)-one], the pEC50 (read-out: EC50) was > 4.00.
As to `CS(=O)(=O)c1nc(-c2ccc(=O)n(Cc3ccc(Cl)cc3F)c2)cc(C(F)(F)F)n1` [Compound 124, 1-(4-chloro-2-fluorobenzyl)-5-(2-(methylsulfonyl)-6-(trifluoromethyl)pyrimidin-4-yl)pyridin-2 (1H)-one], the negative-log EC50 (pEC50) (read-out: EC50) is 6.00 to 9.00.
Turning to `C[S+]([O-])c1nc(-c2ccc(=O)n(Cc3ccc(Cl)cc3F)c2)cc(C(F)(F)F)n1` (stereo not drawn) [Compound 125, 1-(4-chloro-2-fluorobenzyl)-5-(2-(methylsulfinyl)-6-(trifluoromethyl)pyrimidin-4-yl)pyridin-2 (1H)-one], the pEC50 (read-out: EC50) is 5.00 to 6.00.
Still for that read-out and setting: with `COc1ccc(Cn2cc(-c3cc(C(F)(F)F)nc(S(C)(=O)=O)n3)ccc2=O)c(Cl)c1` [Compound 126, 1-(2-chloro-4-methoxybenzyl)-5-(2-(methylsulfonyl)-6-(trifluoromethyl)pyrimidin-4-yl)pyridin-2 (1H)-one] the figure was 6.00 to 9.00; with `COc1ccc(Cn2cc(-c3cc(C(F)(F)F)nc(S(C)(=O)=O)n3)ccc2=O)cc1OC` [Compound 127, 1-(3,4-dimethoxybenzyl)-5-(2-(methylsulfonyl)-6-(trifluoromethyl)pyrimidin-4-yl)pyridin-2 (1H)-one], 6.00 to 9.00.
Take `COc1ccc(Cn2cc(-c3cc(C(F)(F)F)nc([S+](C)[O-])n3)ccc2=O)cc1OC` (stereo not drawn) [Compound 128, 1-(3,4-dimethoxybenzyl)-5-(2-(methylsulfinyl)-6-(trifluoromethyl)pyrimidin-4-yl)pyridin-2 (1H)-one]: where the note is “read-out: EC50”, the pEC50 was 6.00 to 9.00.
Take `C#CCOc1cc(Cn2cc(-c3cc(C(F)(F)F)nc(S(C)(=O)=O)n3)ccc2=O)ccc1OC` [Compound 129, 1-(4-methoxy-3-(prop-2-yn-1-yloxy)benzyl)-5-(2-(methylsulfonyl)-6-(trifluoromethyl)pyrimidin-4-yl)pyridin-2 (1H)-one]: the pEC50 was 6.00 to 9.00.
The compound `C#CCOc1ccc(Cn2cc(-c3cc(C(F)(F)F)nc(S(C)(=O)=O)n3)ccc2=O)cc1OC` [Compound 130, 1-(3-methoxy-4-(prop-2-yn-1-yloxy)benzyl)-5-(2-(methylsulfonyl)-6-(trifluoromethyl)pyrimidin-4-yl)pyridin-2 (1H)-one] showed a pEC50 of 6.00 to 9.00.
